The source of these data is PMC11352099 (RSC Medicinal Chemistry, 2024).

The conditions of data set [1]: 120 min, 10 μM.
Data set [2] deals with SARS-CoV-2 strain hCoV-19/Czech Republic/NRL_6632_2/2020. Nature of the data set: microbe, parasite or virus in culture. It counts as cell-based. The conditions noted are these: Calu-3 cell line.
The conditions of data set [3]: microsomes, 0.75 h, 10 µM, pH 7.4.
Data set [4] in a line: in vitro. Particulars: human.
Another data set concerns the target human RNMT (Homo sapiens, UniProt O43148). Nature of the data set: Off-target inhibition of human RNMT. It counts as biochemical. Particulars: for inhibitory activity against RNMT: 25 μM concentration of inhibitor. The text has this: Human cells rely on several MTases; therefore, it is necessary to assess the possible off-target effect. […]
For the next data set, the target named is SARS-CoV-2 nsp14 MTase (Severe acute respiratory syndrome coronavirus 2, UniProt P0DTD1). Nature of the data set: biochemical. Particulars: for Hill slope: Table S1, dose-response curve, variable slope model. It counts as biochemical.
The conditions of data set [5]: 120 min, 10 μM. The source holds these as a separate data set.
The nature of data set [6]: in vitro. The conditions noted are these: human; for Papp B→A at 2 h, 10 µM / Papp A→B at 2 h, 10 µM: Caco-2, pH 7.4; for efflux ratio at 2 h, 10 µM: Caco-2. As for the experimental part: (§1) 3.5. Caco-2 permeability assay
(§2) Transepithelial bi-directional transport of compounds (10 µM, pH 7.4/7.4) was tested on 21-day differentiated Caco-2 monolayers. Briefly, the cells were seeded at a density of 67 ,500 cells per 96-well plate insert (Millicell®, Merck KGaA, Darmstadt, Germany). They were left to differentiate for 21 days with medium exchange every 2–3 days. Prior to the experiment, the medium from both apical and basolateral well was exchanged for HBSS buffer (containing 10 mM HEPES and 25 mM glucose) and left to equilibrate for 30 min. Compound permeability was assayed by replacing pure HBSS with HBSS containing 10 μM compounds and 220 μM Lucifer yellow (LY) solution in an apical insert (A to B transport) or in a basolateral well (B to A transport). The tre ated cells were then returned to the incubator for 2 h at 37 °C. After that, samples were collected from both apical inserts and basolateral wells and analyzed using LC -MS/MS (SCIEX Triple Quad™ 7500 QTRAP® Ready). LC separation was done on Synergi 4µm Fusion 50 × 2 mm column (Phenomenex) using a water/acetonitrile gradient with 0.1% formic acid starting from 2 to 98% for 4.5 min.
(§3) The apparent permeability coefficient (Papp) was calculated from t he following equation: Papp = (dQ / dt) / C0 * A, where dQ/dt is the rate of absorption of the drug across the cells, C0 is the donor compartment concentration at time zero, and A is the area of the monolayer. Efflux ratio was expressed as (Papp B -A) / (Papp A-B). Recovery (%) was determined as (total compound mass i n donor and receiver compartments at the end of the incubation / initial compound mass in the donor compartment) x 100. The data represent means ± SD of two independent experiments performed in triplicate. […]
(§4) were used as control compounds.

For a further data set, the system named is Caco-2 monolayers. Nature of the data set: in vitro. The conditions noted are these: Caco-2. Here is the method: as §1, §2, §3, §4
For data set [7] the following is noted: microsomes, 0.75 h, 10 µM, pH 7.4. The source holds these as a separate data set.
Data set [8] in a line: in vitro. Particulars: mouse, plasma.
Where [9] appears, read: Severe acute respiratory syndrome coronavirus 2, 72 h, MOI ∼0.01, 3 days, read-out: EC50 (antiviral effect).
Where [10] appears, read: Table 1 and text, N.I., no inhibition, read-out: IC50.

Like-named read-outs stand apart in the source and are kept apart here. Some results are limits rather than exact numbers.

Sequence of human RNMT (O43148 whole entry): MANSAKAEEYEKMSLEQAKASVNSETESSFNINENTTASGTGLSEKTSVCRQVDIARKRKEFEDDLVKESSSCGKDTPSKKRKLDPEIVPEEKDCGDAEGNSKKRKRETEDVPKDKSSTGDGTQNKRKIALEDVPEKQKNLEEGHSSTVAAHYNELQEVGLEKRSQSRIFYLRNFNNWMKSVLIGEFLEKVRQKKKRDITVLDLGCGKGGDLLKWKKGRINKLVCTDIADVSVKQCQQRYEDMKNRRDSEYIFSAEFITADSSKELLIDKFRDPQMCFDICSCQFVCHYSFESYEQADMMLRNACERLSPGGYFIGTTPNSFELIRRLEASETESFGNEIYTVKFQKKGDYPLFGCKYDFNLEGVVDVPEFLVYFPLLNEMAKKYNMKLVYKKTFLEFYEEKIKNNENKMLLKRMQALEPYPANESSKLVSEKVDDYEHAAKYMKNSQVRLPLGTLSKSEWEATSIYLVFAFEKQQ

`Cc1cc(=O)oc2cc(NC(=O)[C@H]3O[C@@H](n4cc(C#Cc5cncnc5)c5c(N)ncnc54)[C@H](O)[C@@H]3O)ccc12` [18l]: the “Plasma stability % of the parent compound after 120 min, Human” value (shortened to “Plasma stability % … Human”) in [1] stood at 74 ± 0.2%. For the same compound, in data set [2] (setting [9]), the EC50 is 12 ± 6 µM. In [3], the “Microsomal stability % of the parent compound after 45 min, Human” value (“Microsomal stability % … Human” below) was found to be 90 ± 4.2%. In the data set “in vitro [4]”, this compound registered a CC50 at 3 days greater than 50 µM. Also, on human RNMT, the IC50 was greater than 25 µM and the “inhibitory activity against RNMT” value is “None of the tested compounds exhibited any inhibitory activity”. Moreover, the IC50 on SARS-CoV-2 nsp14 MTase (setting [10]) was 0.031 ± 0.005 µM. On SARS-CoV-2 nsp14 MTase, this compound registered a Hill slope of -1.09. For the same compound, the “Plasma stability % of the parent compound after 120 min, Mouse” value (“Plasma stability % … Mouse” below) in data set [5] was 89 ± 1.1%. Further, in “in vitro [6]” (Caco-2, Recovery (%) A-B), the recovery at 2 h, 10 µM came out at 87%. For the same compound, the Papp B→A at 2 h, 10 µM in “in vitro [6]” was found to be 8.3 ± 0.5 ×10⁻⁶ cm/s. Moreover, the “Papp B-A” value in the data set on Caco-2 monolayers was found to be 8.3 ± 0.5 cm/s x 10-6. Also, the “Microsomal stability % of the parent compound after 45 min, Mouse” value (from here on “Microsomal stability % … Mouse”) in [7] worked out at 84 ± 2.5%.

Turning to `Cc1cc(=O)[nH]c2cc(NC(=O)[C@H]3O[C@@H](n4cc(C#Cc5cncnc5)c5c(N)ncnc54)[C@H](O)[C@@H]3O)ccc12` [18n], the “Plasma stability % … Human” value in data set [1] worked out at 93 ± 0.4%. The EC50 in data set [2] (setting [9]) amounted to 10 ± 3 µM. For the same compound, the EC50 in data set [2] (Severe acute respiratory syndrome coronavirus 2, Table S3, read-out: EC50) came to 9.8 µM. Moreover, the “Microsomal stability % … Human” value in [3] stood at 90 ± 2.0%. In “in vitro [4]”, this compound showed a CC50 at 3 days greater than 50 µM. Further, on human RNMT, the “inhibitory activity against RNMT” value is “None of the tested compounds exhibited any inhibitory activity”. The IC50 at SARS-CoV-2 nsp14 MTase (setting [10]) stood at 0.043 ± 0.005 µM. At SARS-CoV-2 nsp14 MTase, this compound yielded a Hill slope of -1.29. Also, the IC50 on SARS-CoV-2 nsp14 MTase (values printed in Fig. 3 (correlation with GlideScore XP), read-out: IC50) turned out to be 0.04 µM. Also, in the data set “in vitro [8]”, the half-life at 2 h, 10 µM was 1.57 h. The “Plasma stability % … Mouse” value in data set [5] is recorded as 41 ± 0.7%. In the data set “in vitro [6]”, the efflux ratio at 2 h, 10 µM worked out at 0.6; the Papp A→B at 2 h, 10 µM stood at 11.3 ± 3.7 ×10⁻⁶ cm/s; the Papp B→A at 2 h, 10 µM worked out at 7.3 ± 1.3 ×10⁻⁶ cm/s. Besides, the recovery at 2 h, 10 µM in the data set “in vitro [6]” (Caco-2, Recovery (%) A-B) worked out at 148%. Further, the recovery at 2 h, 10 µM in “in vitro [6]” (Caco-2, Recovery (%) B-A) was 110%. In the data set on Caco-2 monolayers, the “Papp A-B” value is 11.3 ± 3.7 cm/s x 10-6 and the “Papp B-A” value was 7.3 ± 1.3 cm/s x 10-6. Also, the “Microsomal stability % … Mouse” value in [7] amounted to 85 ± 0.6%.

In the case of `Cc1cc(=O)[nH]c2cc(N(C)C(=O)[C@H]3O[C@@H](n4cc(C#Cc5cncnc5)c5c(N)ncnc54)[C@H](O)[C@@H]3O)ccc12` [18q], the “Plasma stability % … Human” value in data set [1] is recorded as 80 ± 1.1%. Also, in data set [2] (Severe acute respiratory syndrome coronavirus 2, read-out: EC50 (antiviral effect)), the EC50 was greater than 50 µM. Also, the “Microsomal stability % … Human” value in [3] was found to be 107 ± 6.6%. Moreover, the “inhibitory activity against RNMT” value against human RNMT is “None of the tested compounds exhibited any inhibitory activity”. In addition, the IC50 on SARS-CoV-2 nsp14 MTase (setting [10]) was 0.89 ± 0.12 µM. At SARS-CoV-2 nsp14 MTase, this compound registered a Hill slope of -1.02. Besides, the half-inhibitory concentration (IC50) at SARS-CoV-2 nsp14 MTase (Table S1, read-out: IC50 (inhibitory activity)) is 0.891 µM. For the same compound, the “Plasma stability % … Mouse” value in data set [5] is given as 86 ± 0.9%. In addition, in the data set “in vitro [6]”, the efflux ratio at 2 h, 10 µM is 1; the Papp A→B at 2 h, 10 µM came out at 2 ± 0.3 ×10⁻⁶ cm/s; the Papp B→A at 2 h, 10 µM is 2.1 ± 0.4 ×10⁻⁶ cm/s. The recovery at 2 h, 10 µM in “in vitro [6]” (Caco-2, Recovery (%) A-B) was determined as 89%. Also, the recovery at 2 h, 10 µM in “in vitro [6]” (Caco-2, Recovery (%) B-A) worked out at 101%. In addition, in the data set with Caco-2 monolayers, the “Papp A-B” value amounted to 2.0 ± 0.3 cm/s x 10-6 and the “Papp B-A” value was determined as 2.1 ± 0.4 cm/s x 10-6. For the same compound, the “Microsomal stability % … Mouse” value in data set [7] came out at 117 ± 10.9%.
